The source of these data is paper PMC11811690 (Angewandte Chemie (International Ed. in English), 2024).

In brackets after ≈: the same amount, converted by molar mass. Several values for one entry are separate records, joined by “and”; a condition that tells them apart may be missing. Equal values may be shown once. Read-outs that look alike come from different tables or passages of the source. A value given as a limit tells only on which side of the number the result lay.

The test system of assay [1] is M. tuberculosis H37Rv poly-g-GFP. The assay is described as follows: microbe, parasite or virus in culture. As to conditions: for IC90: Mycobacterium tuberculosis, H37RV, 240 h, read-out: IC90 Mtb H37Rv-poly-g-GFP, fluorescence read-out. The class given is cell-based.
Assay [2] has the same test system. Put plainly: microbe, parasite or virus in culture. The class given is cell-based. The settings on record: Mycobacterium tuberculosis, 336 h, read-out: MIC Mtb H37Rv-poly-g-GFP, turbidity read-out.
Assay [3] relates to C. crescentus pfhuA_ΔacrAB-nodT. The class given is cell-based. As to conditions: disk diffusion, 20 µg per disk, 24 h, 30 °C; permeable and efflux-deficient strain.
Another assay deals with C. crescentus pfhuA. Put plainly: Inhibition zone (Kirby-Bauer disk diffusion), C. crescentus pfhuA. As to conditions: 20 µg per disk, 24 h, 30 °C, permeable strain. A general note: A growth-free zone around the sample is the usual read-out of agar diffusion tests.
In a further assay the test system is C. difficile 630. Put plainly: microbe, parasite or virus in culture. The class given is cell-based, Clostridioides difficile. The settings on record: C. difficile 630, anaerobic, overnight, growth suppressed to OD600 < 0.15; for MIC: Clostridioides difficile, read-out: MIC C. difficile.
Another assay concerns the target T1, M. tuberculosis RNAP (Mycobacterium tuberculosis, UniProt P9WGY7+P9WGY9).
T1 construct: made in house; host or cells: E. coli BL21(DE3) is stated for σA only
The assay is described as follows: biochemical. The settings on record: fluorescent run-off transcription assay, triplicate, mean ± s.d.; read-out: IC50 Mtb RNAP, fluorescence read-out.

The next assay deals with mutant RNAP^R89A. Further details: method as in PMID 29606590. The settings on record: transcription assay, mutant versus wild-type RNAP; cited from earlier work.
Where [4] appears, read: concentration for 90 % inhibition of fluorescence as proxy for growth inhibition, 10 days, 37 °C.
Where [5] appears, read: 14 days, 37 °C, turbidity by eye.

Regarding `CC[C@H]1/C=C(\C)[C@@H](O)C/C=C/C=C(\CNCc2nnc(-c3ccccc3)s2)C(=O)O[C@H]([C@@H](C)O)C/C=C(C)/C=C(\C)[C@@H]1O[C@@H]1OC(C)(C)[C@@H](OC(=O)C(C)C)[C@H](O)[C@@H]1O` [compound 20], the IC90 (in general, the point of the concentration-response curve where the effect stands at 90%) in assay [1] stood at 2 µg/mL (≈ 2.39 µM). Moreover, the MIC in assay [2] is 2 µg/mL (≈ 2.39 µM). In assay [3], the “Inhibition zone C. crescentus pfuhAh_∆acrABnodT” value is listed as 241 ± 40 mm2. Further, the “Inhibition zone C. crescentus pfuhAh” value in the assay on C. crescentus pfhuA stood at 108 ± 11 mm2.
`CC[C@H]1/C=C(\C)[C@@H](O)C/C=C/C=C(\CNCc2nnc(-c3cc(Cl)cc(Cl)c3)o2)C(=O)O[C@H]([C@@H](C)O)C/C=C(C)/C=C(\C)[C@@H]1O[C@@H]1OC(C)(C)[C@@H](OC(=O)C(C)C)[C@H](O)[C@@H]1O` [compound 21]: in assay [1], the IC90 came out at 8 µg/mL (≈ 8.98 µM). The MIC was 2 µg/mL (≈ 2.24 µM) in assay [2] and 4 µg/mL (≈ 4.49 µM) with C. difficile 630. For the same compound, the “Inhibition zone C. crescentus pfuhAh_∆acrABnodT” value in assay [3] was found to be 73 ± 11 mm2.
For the compound `CC[C@H]1/C=C(\C)[C@@H](O)C/C=C/C=C(\CNc2nc(COc3ccccc3)cs2)C(=O)O[C@H]([C@@H](C)O)C/C=C(C)/C=C(\C)[C@@H]1O[C@@H]1OC(C)(C)[C@@H](OC(=O)C(C)C)[C@H](O)[C@@H]1O` [compound 10], the IC50 (in general, the concentration that gives 50% inhibition) on M. tuberculosis RNAP is 170 ± 60 nM. The IC90 in assay [1] amounted to 8 µg/mL (≈ 9.38 µM). Besides, the figures for the MIC (in assay [2]; in the assay with C. difficile 630) were 4 to 8 µg/mL (≈ 4.69 to 9.38 µM) and 1 µg/mL (≈ 1.17 µM), respectively. The “MIC C. difficile” value against C. difficile 630 is 1 µg/mL (≈ 1.17 µM).
Turning to `CC[C@H]1/C=C(\C)[C@@H](O)C/C=C/C=C(\CNc2cccc(CNC(=O)c3ccc(OC)c(OC)c3Cl)c2)C(=O)O[C@H]([C@@H](C)O)C/C=C(C)/C=C(\C)[C@@H]1O[C@@H]1OC(C)(C)[C@@H](OC(=O)C(C)C)[C@H](O)[C@@H]1O` [compound 30], on M. tuberculosis RNAP, the IC50 was 620 ± 290 nM. The IC90 in assay [1] (setting [4]) came to 16 µg/mL (≈ 16.5 µM). Further, the MIC in the assay with C. difficile 630 was more than 32 µg/mL.
Take `CC[C@H]1/C=C(\C)[C@@H](O)C/C=C/C=C(\CNc2nc(-c3ccccc3)cs2)C(=O)O[C@H]([C@@H](C)O)C/C=C(C)/C=C(\C)[C@@H]1O[C@@H]1OC(C)(C)[C@@H](OC(=O)C(C)C)[C@H](O)[C@@H]1O` [compound 13]: the IC50 on M. tuberculosis RNAP is 130 ± 50 nM. For the same compound, the 90% effect concentration (IC90) in assay [1] stood at 8 µg/mL (≈ 9.72 µM). In addition, the MIC was 8 to 16 µg/mL (≈ 9.72 to 19.4 µM) in assay [2] and 4 µg/mL (≈ 4.86 µM) in the assay on C. difficile 630.
As to `CC[C@H]1/C=C(\C)[C@@H](O)C/C=C/C=C(\CNc2ccc(C#N)cn2)C(=O)O[C@H]([C@@H](C)O)C/C=C(C)/C=C(\C)[C@@H]1O[C@@H]1OC(C)(C)[C@@H](OC(=O)C(C)C)[C@H](O)[C@@H]1O` [compound 25], the IC90 in assay [1] (setting [4]) amounted to 16 µg/mL (≈ 20.9 µM). The MIC in assay [2] (setting [5]) came out at 8 µg/mL (≈ 10.4 µM). For the same compound, the “MIC C. difficile” value with C. difficile 630 stood at 1 µg/mL (≈ 1.31 µM).
`CC[C@H]1/C=C(\C)[C@@H](O)C/C=C/C=C(\CNCc2nnc(-c3ccc(OC)c(OC)c3Cl)o2)C(=O)O[C@H]([C@@H](C)O)C/C=C(C)/C=C(\C)[C@@H]1O[C@@H]1OC(C)(C)[C@@H](OC(=O)C(C)C)[C@H](O)[C@@H]1O` [compound 18]: the concentration for an effect of 90% (IC90) in assay [1] is 8 µg/mL (≈ 8.73 µM). In addition, the MIC in assay [2] is 4 µg/mL (≈ 4.36 µM); with C. difficile 630 it was 8 µg/mL (≈ 8.73 µM). Besides, in assay [3], the “Inhibition zone C. crescentus pfuhAh_∆acrABnodT” value is 200 ± 19 mm2. For the same compound, the “Inhibition zone C. crescentus pfuhAh” value in the assay on C. crescentus pfhuA came out at 54 ± 8 mm2.
Consider `CC[C@H]1/C=C(\C)[C@@H](O)C/C=C/C=C(\CNc2cccc(CN)c2)C(=O)O[C@H]([C@@H](C)O)C/C=C(C)/C=C(\C)[C@@H]1O[C@@H]1OC(C)(C)[C@@H](OC(=O)C(C)C)[C@H](O)[C@@H]1O` [compound 27], for which the IC50 on M. tuberculosis RNAP was more than 100000 nM. In addition, the IC90 in assay [1] (setting [4]) was determined as 32 µg/mL (≈ 41.6 µM). In addition, the MIC in the assay on C. difficile 630 was more than 32 µg/mL. The “Inhibition zone C. crescentus pfuhAh_∆acrABnodT” value in assay [3] is 119 ± 15 mm2.
For `CC[C@H]1/C=C(\C)[C@@H](O)C/C=C/C=C(\CNCc2nnc(-c3ccccc3)o2)C(=O)O[C@H]([C@@H](C)O)C/C=C(C)/C=C(\C)[C@@H]1O[C@@H]1OC(C)(C)[C@@H](OC(=O)C(C)C)[C@H](O)[C@@H]1O` [compound 16], the IC50 on M. tuberculosis RNAP turned out to be 420 ± 230 nM. The IC90 in assay [1] worked out at 4 µg/mL (≈ 4.87 µM). For the same compound, the MIC is 4 µg/mL (≈ 4.87 µM) in assay [2] and 4 to 8 µg/mL (≈ 4.87 to 9.73 µM) in the assay with C. difficile 630. In addition, the “Inhibition zone C. crescentus pfuhAh_∆acrABnodT” value in assay [3] is 322 ± 26 mm2. The “Inhibition zone C. crescentus pfuhAh” value with C. crescentus pfhuA is 127 ± 13 mm2.
`CC[C@H]1/C=C(\C)[C@@H](O)C/C=C/C=C(\CNc2nccs2)C(=O)O[C@H]([C@@H](C)O)C/C=C(C)/C=C(\C)[C@@H]1O[C@@H]1OC(C)(C)[C@@H](OC(=O)C(C)C)[C@H](O)[C@@H]1O` [compound 8]: the concentration for an effect of 90% (IC90) in assay [1] was found to be 16 µg/mL (≈ 21.4 µM). For the same compound, the MIC in the assay on C. difficile 630 is 4 to 8 µg/mL (≈ 5.36 to 10.7 µM). Also, the “Inhibition zone C. crescentus pfuhAh_∆acrABnodT” value in assay [3] is 263 ± 32 mm2. Moreover, the “Inhibition zone C. crescentus pfuhAh” value with C. crescentus pfhuA was determined as 81 ± 12 mm2.
With `CC[C@H]1/C=C(\C)[C@@H](O)C/C=C/C=C(\CNc2ccc(C#N)cc2)C(=O)O[C@H]([C@@H](C)O)C/C=C(C)/C=C(\C)[C@@H]1O[C@@H]1OC(C)(C)[C@@H](OC(=O)C(C)C)[C@H](O)[C@@H]1O` [compound 24], the “activity against M. tuberculosis (in words)” value in assay [1] is listed as “showed activity”. For the same compound, the IC90 in assay [1] (setting [4]) was determined as 16 µg/mL (≈ 20.9 µM). Also, the MIC stood at 16 µg/mL (≈ 20.9 µM) in assay [2] (setting [5]) and 4 µg/mL (≈ 5.23 µM) in the assay on C. difficile 630.
For `CC[C@H]1/C=C(\C)[C@@H](O)C/C=C/C=C(\CNCc2nnc(-c3cccc(O)c3O)o2)C(=O)O[C@H]([C@@H](C)O)C/C=C(C)/C=C(\C)[C@@H]1O[C@@H]1OC(C)(C)[C@@H](OC(=O)C(C)C)[C@H](O)[C@@H]1O` [compound 22], the IC90 in assay [1] came to 4 µg/mL (≈ 4.68 µM). Also, the values for the MIC (in assay [2]; with C. difficile 630) were 2 µg/mL (≈ 2.34 µM) and 8 µg/mL (≈ 9.37 µM), respectively.
Turning to `CC[C@H]1/C=C(\C)[C@@H](O)C/C=C/C=C(\CNCc2nnc(-c3ccc(C(F)(F)F)cc3)o2)C(=O)O[C@H]([C@@H](C)O)C/C=C(C)/C=C(\C)[C@@H]1O[C@@H]1OC(C)(C)[C@@H](OC(=O)C(C)C)[C@H](O)[C@@H]1O` [compound 23], the IC90 in assay [1] (setting [4]) is 8 µg/mL (≈ 8.99 µM). Also, the values for the MIC (in assay [2] (setting [5]); with C. difficile 630) were 2 µg/mL (≈ 2.25 µM) and 4 µg/mL (≈ 4.49 µM), respectively.
Take `CCc1c(Cl)c(O)c(Cl)c(O)c1C(=O)O[C@H]1[C@H](O)[C@H](OC)[C@H](OC/C2=C\C=C\C[C@H](O)/C(C)=C/[C@H](CC)[C@@H](O[C@@H]3OC(C)(C)[C@@H](OC(=O)C(C)C)[C@H](O)[C@@H]3O)/C(C)=C/C(C)=C/C[C@@H]([C@@H](C)O)OC2=O)O[C@@H]1C` [Fdx, fidaxomicin, reference compound]: the IC90 in assay [1] worked out at 0.5 µg/mL (≈ 0.473 µM). Further, the results for the MIC (in assay [2]; with C. difficile 630) were 0.5 µg/mL (≈ 0.473 µM) and less than 0.0078 µg/mL, respectively. In addition, the “Inhibition zone C. crescentus pfuhAh_∆acrABnodT” value in assay [3] is 311 ± 4 mm2 and 311±4.0 mm2. Further, in the assay on mutant RNAP^R89A, the “increase of IC50 against the mutant RNAP^R89A” value was more than 400 fold. Besides, the “Inhibition zone C. crescentus pfuhAh” value in the assay on C. crescentus pfhuA is recorded as 126 ± 20 mm2.
